Consider eight compounds from ChEMBL document CHEMBL1201862, “PubChem BioAssay data set” (2004).

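Protocol summary: plate cells (96-well), add compound at 5 concentrations, incubate 48 h, interpolate endpoints linearly. Abbreviation: GI50, concentration required for 50% inhibition of growth.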 Active and inactive are the calls of the source. Rule as the data show it: active = GI50 up to about 1.1 µM and inactive = higher. Where only a bound is given, the exact number is not on record here.

Some test systems named below: 786-0; CCRF-CEM; COLO 205; EKVX; HCT-15; HT-29; Hs-578T; K562; KM12; MDA-MB-435; MOLT-4; NCI-H226; NCI-H23; NCI-H522; OVCAR-5; SK-MEL-28; SK-OV-3; SNB-75.
What all share (assay): inhibition of tumour cell growth, NCI panel, 48 h

In the case of `CC1(C)CN=C(Nc2ccc(F)c(Cl)c2)S1`, the GI50 was > 100 µM (inactive) in the assay on 786-0; > 100 µM (inactive) in the assay on CCRF-CEM; > 100 µM (inactive) in the assay with COLO 205; > 100 µM (inactive) in the assay on EKVX; over 100 µM in the assay with HCT-15; > 100 µM (inactive) in the assay with HT-29. For the same compound, the GI50 in the assay with Hs-578T, in the assay on K562, in the assay with KM12, with MDA-MB-435, in the assay with MOLT-4 and with NCI-H226 was > 100 µM (inactive) throughout. The GI50 in the assay with NCI-H23, with NCI-H522, in the assay on OVCAR-5, in the assay on SK-MEL-28, in the assay on SK-OV-3 and with SNB-75 was > 100 µM (inactive) each time.

Turning to `Nc1nnc2oc3ccc4ccccc4c3cc1-2`, the GI50 is 34 µM (inactive) in the assay on 786-0; 24.5 µM (inactive) in the assay on CCRF-CEM; 23.6 µM (inactive) in the assay on COLO 205; 33.2 µM (inactive) in the assay on EKVX; 28 µM with HCT-15; 38.2 µM (inactive) in the assay with HT-29. The GI50 in the assay on Hs-578T was 54.5 µM (inactive); with K562, 37.5 µM (inactive); with KM12, 29.7 µM (inactive); in the assay with MDA-MB-435, 24.3 µM (inactive); with MOLT-4, 27.7 µM (inactive); in the assay on NCI-H226 it was 21.5 µM (inactive). The GI50 is 42.8 µM (inactive) with NCI-H23; 24.4 µM (inactive) in the assay with NCI-H522; 57.1 µM (inactive) in the assay on OVCAR-5; 39.9 µM (inactive) in the assay with SK-MEL-28; 67.5 µM (inactive) in the assay on SK-OV-3; 21.4 µM (inactive) in the assay with SNB-75.

`CC/C(Cl)=N\OC(=O)Nc1ccc(OC)cc1`: the GI50 in the assay on 786-0 was 1.65 µM (inactive); in the assay on CCRF-CEM, 1.75 µM (inactive); with COLO 205, 2.11 µM (inactive); with EKVX, 5.9 µM (inactive); with HCT-15, 1.6 µM; in the assay on HT-29 it was 6.05 µM (inactive). In addition, the GI50 was 14.4 µM (inactive) in the assay on Hs-578T; 1.98 µM (inactive) in the assay with K562; 15.1 µM (inactive) in the assay with KM12; 8.04 µM (inactive) in the assay with MDA-MB-435; 2.07 µM (inactive) in the assay with MOLT-4; 12.2 µM (inactive) in the assay on NCI-H226. The GI50 is 15.4 µM (inactive) with NCI-H23; 0.847 µM (active) in the assay with NCI-H522; 6.11 µM (inactive) with OVCAR-5; 6.71 µM (inactive) in the assay on SK-MEL-28; 17.5 µM (inactive) in the assay on SK-OV-3; 6.27 µM (inactive) in the assay with SNB-75.

As to `CCOC(=O)c1cc2cc(CSc3ccccc3)ccc2oc1=O`, the GI50 in the assay on 786-0 is 94.8 µM (inactive); in the assay with CCRF-CEM, > 100 µM (inactive); in the assay with COLO 205, > 100 µM (inactive); in the assay on EKVX, > 100 µM (inactive); with HCT-15, over 100 µM; in the assay with HT-29 it was > 100 µM (inactive). Besides, the GI50 with Hs-578T was 52.1 µM (inactive); in the assay on K562 it was 82.2 µM (inactive); with KM12 it was > 100 µM (inactive); with MDA-MB-435, > 100 µM (inactive); with MOLT-4, > 100 µM (inactive); in the assay on NCI-H226, > 100 µM (inactive). In addition, the GI50 in the assay on NCI-H23 is > 100 µM (inactive); in the assay with NCI-H522, > 100 µM (inactive); with OVCAR-5, > 100 µM (inactive); with SK-MEL-28, > 100 µM (inactive); in the assay with SK-OV-3 it was > 100 µM (inactive); with SNB-75 it was 38.4 µM (inactive).

On to `Cc1sccc1C(=S)Nc1ccc(Cl)c(/C=N/OC(C)(C)C)c1`, for which the GI50 with 786-0 is 21.1 µM (inactive); in the assay with CCRF-CEM, 21.3 µM (inactive); with COLO 205 it was 13.9 µM (inactive); in the assay on EKVX, 15.8 µM (inactive); with HCT-15 it was 15 µM; in the assay with HT-29, 14.3 µM (inactive). For the same compound, the GI50 with Hs-578T was 22.3 µM (inactive); in the assay on KM12, 13.2 µM (inactive); with MDA-MB-435, 21.7 µM (inactive); in the assay on MOLT-4, 7.6 µM (inactive); in the assay with NCI-H226, 13.9 µM (inactive); in the assay with NCI-H23 it was 15.4 µM (inactive). Besides, the GI50 in the assay with NCI-H522 is 12 µM (inactive); in the assay on OVCAR-5, 19.3 µM (inactive); in the assay with SK-MEL-28, 26.6 µM (inactive); in the assay on SK-OV-3 it was 21.9 µM (inactive); with SNB-75, 21.1 µM (inactive).

Consider `CC(C)C[C@H]1[C@@H](OCc2ccccc2)COS(=O)N1[C@H](C)c1ccccc1` (stereo partly drawn), for which the GI50 was 13.9 µM (inactive) in the assay with 786-0; 13.3 µM (inactive) in the assay on CCRF-CEM; 15.2 µM (inactive) in the assay on COLO 205; 28.6 µM (inactive) in the assay on EKVX; 26.9 µM with HCT-15; 6.95 µM (inactive) in the assay on HT-29. For the same compound, the GI50 is 12 µM (inactive) in the assay on Hs-578T; 5.51 µM (inactive) in the assay with K562; 13.2 µM (inactive) in the assay on KM12; 22.4 µM (inactive) in the assay with MDA-MB-435; 11.9 µM (inactive) with MOLT-4; 10.9 µM (inactive) with NCI-H226. Further, the GI50 is 26.1 µM (inactive) with NCI-H23; 4.33 µM (inactive) with NCI-H522; 18.9 µM (inactive) with OVCAR-5; 37.6 µM (inactive) with SK-MEL-28; 14.5 µM (inactive) in the assay with SK-OV-3; 15.6 µM (inactive) in the assay on SNB-75.

As to `NC1CSc2ccccc2NC1=O` (stereo not drawn), the GI50 in the assay with 786-0 is > 100 µM (inactive); in the assay with CCRF-CEM it was > 100 µM (inactive); in the assay on COLO 205 it was > 100 µM (inactive); in the assay with EKVX it was > 100 µM (inactive); in the assay with HCT-15, over 100 µM; in the assay on HT-29, > 100 µM (inactive). Further, the GI50 with Hs-578T, in the assay with K562, with KM12, in the assay on MDA-MB-435, in the assay on MOLT-4 and in the assay on NCI-H226 was > 100 µM (inactive) in each case. For the same compound, the GI50 in the assay with NCI-H23, in the assay with NCI-H522, with OVCAR-5, in the assay with SK-MEL-28, in the assay with SK-OV-3 and with SNB-75 was > 100 µM (inactive) throughout.

Take `O=[N+]([O-])c1nccn1CCCNc1c2ccccc2[n+]([O-])c2ccccc12`: the GI50 in the assay on 786-0 was > 100 µM (inactive); in the assay with CCRF-CEM it was > 100 µM (inactive); in the assay with COLO 205, 18.2 µM (inactive); in the assay on EKVX, > 100 µM (inactive); in the assay with HCT-15 it was over 100 µM; in the assay on HT-29 it was 43.6 µM (inactive). Further, the GI50 with Hs-578T was > 100 µM (inactive); in the assay with K562, > 100 µM (inactive); in the assay on KM12, > 100 µM (inactive); in the assay on MDA-MB-435, > 100 µM (inactive); in the assay with MOLT-4 it was > 100 µM (inactive); with NCI-H226, 38.6 µM (inactive). Also, the GI50 in the assay with NCI-H23, in the assay with NCI-H522, with OVCAR-5, in the assay on SK-MEL-28, with SK-OV-3 and in the assay on SNB-75 was > 100 µM (inactive) throughout.
